Experimental data published in patent EP3426036B1, “CROP ENHANCEMENT” (priority 2016, dated 2017).

What was measured:
Assay type in all cases: in vivo
Durum wheat = test: Crop enhancement effect on wheat under drought conditions in the field (Example 1c); conditions: for Protein content / Grain Yield / TGW / No. of grains per ear: 75.0 g a.i/ha at BBCH GS 39; for Grain Yield / TGW: adjusted to 10% standard moisture; for No. of grains per ear: average of 10 ears per plot
Protocol: Durum wheat (plot size 24m^2) was treated with a single application at BBCH GS 39 (flag leaf stage) with the compound of formula I at a rate of 75.0 g a.i/ha. The plants were split into non-irrigated (only rainfed) and irrigated with 50% of evapotranspiration compensation. Untreated check plants were also included in both water supply conditions. These water supply conditions were maintained during the reproductive stages of plant growth (BBCH 55-73). The trial was carried out with six replicates.
At the end of the trial, a 12m^2 plot was harvested from each of four replicates for each water supply condition. […]
In addition to the above factors, the Normalised Difference Vegetation Index (NDVI) was also assessed. This is an estimate of the photosynthetically absorbed radiation over the crop surfaces and allows an estimate of the Leaf Area Index in order to track plant growth and vigour. The NDVI was measured several times during the trial with two handheld crop devices with active light source optical sensors: GreenSeeker HCS-100 (7 measurements) and RapidSCAN CS-45 (5 measurements).

Spring wheat = test: Crop enhancement effect on wheat under drought conditions in the field (Example 1d); conditions: non-irrigated; for Grain Yield / TGW: adjusted to 10% standard moisture; for No. of grains per ear: average of 20 ears per plot
Protocol: Spring wheat (plot size 30m^2) was treated with a single application at BBCH GS 41 (early boot stage) or 49 (first awns visible) with the compound of formula I at a rate of 75.0 g a.i/ha. […] This water supply condition was maintained during the reproductive stages of plant growth (BBCH 55-89). The trial was carried out with six replicates. At the end of the trial, a 20m^2 plot was harvested from each of five replicates. […]

glutathione reductase = test: Enzymatic analysis of soybean plants under drought conditions (Example 2a); conditions: 0.75 l/ha at R1 or R3
Protocol: Soybean plants were grown in pots. The plants were treated at R1 (36 days after sewing) or R3 (44 days after sewing) with the compound of formula I at 0.75 l/ha. An untreated control plant was also included. After treatment, the plants were subjected to drought conditions until the end of the trial at day 65. Five replicates of the control and each treatment were harvested for analysis of yield and enzymatic activity.

[1] = 75.0 g a.i/ha applied at BBCH 41
[2] = 75.0 g a.i/ha applied at BBCH 49

## Cn1cc(C(=O)Nc2cccc3c2C2CCC3C2=C(Cl)Cl)c(C(F)F)n1 (centres unmarked) [Compound I, benzovindiflupyr]
Durum wheat; 50% ET compensation
  Protein content: 15.45%
  Grain Yield: 60.60 dT/Ha
  TGW: 45.78 g
  No. of grains per ear: 42.08
Durum wheat; GreenSeeker HCS-100, BBCH 69(1), 50% ET compensation
  Normalised Difference Vegetation Index (NDVI): 0.820
Durum wheat; GreenSeeker HCS-100, BBCH 69(1), non-irrigated
  Normalised Difference Vegetation Index (NDVI): 0.788
Durum wheat; GreenSeeker HCS-100, BBCH 69(2), 50% ET compensation
  Normalised Difference Vegetation Index (NDVI): 0.787
Durum wheat; GreenSeeker HCS-100, BBCH 69(2), non-irrigated
  Normalised Difference Vegetation Index (NDVI): 0.747
Durum wheat; GreenSeeker HCS-100, BBCH 73, 50% ET compensation
  Normalised Difference Vegetation Index (NDVI): 0.750
Durum wheat; GreenSeeker HCS-100, BBCH 73, non-irrigated
  Normalised Difference Vegetation Index (NDVI): 0.672
Durum wheat; GreenSeeker HCS-100, BBCH 75-83, 50% ET compensation
  Normalised Difference Vegetation Index (NDVI): 0.705
Durum wheat; GreenSeeker HCS-100, BBCH 75-83, non-irrigated
  Normalised Difference Vegetation Index (NDVI): 0.557
Durum wheat; GreenSeeker HCS-100, BBCH 83-85, 50% ET compensation
  Normalised Difference Vegetation Index (NDVI): 0.673
Durum wheat; GreenSeeker HCS-100, BBCH 83-85, non-irrigated
  Normalised Difference Vegetation Index (NDVI): 0.468
Durum wheat; GreenSeeker HCS-100, BBCH 85, 50% ET compensation
  Normalised Difference Vegetation Index (NDVI): 0.572
Durum wheat; GreenSeeker HCS-100, BBCH 85, non-irrigated
  Normalised Difference Vegetation Index (NDVI): 0.375
Durum wheat; GreenSeeker HCS-100, BBCH 87, 50% ET compensation
  Normalised Difference Vegetation Index (NDVI): 0.464
Durum wheat; GreenSeeker HCS-100, BBCH 87, non-irrigated
  Normalised Difference Vegetation Index (NDVI): 0.185
Durum wheat; RapidSCAN CS-45, BBCH 69, 50% ET compensation
  Normalised Difference Vegetation Index (NDVI): 0.663
Durum wheat; RapidSCAN CS-45, BBCH 69, non-irrigated
  Normalised Difference Vegetation Index (NDVI): 0.592
Durum wheat; RapidSCAN CS-45, BBCH 73, 50% ET compensation
  Normalised Difference Vegetation Index (NDVI): 0.657
Durum wheat; RapidSCAN CS-45, BBCH 73, non-irrigated
  Normalised Difference Vegetation Index (NDVI): 0.625
Durum wheat; RapidSCAN CS-45, BBCH 83-85, 50% ET compensation
  Normalised Difference Vegetation Index (NDVI): 0.572
Durum wheat; RapidSCAN CS-45, BBCH 83-85, non-irrigated
  Normalised Difference Vegetation Index (NDVI): 0.393
Durum wheat; RapidSCAN CS-45, BBCH 85, 50% ET compensation
  Normalised Difference Vegetation Index (NDVI): 0.538
Durum wheat; RapidSCAN CS-45, BBCH 85, non-irrigated
  Normalised Difference Vegetation Index (NDVI): 0.320
Durum wheat; RapidSCAN CS-45, BBCH 87, 50% ET compensation
  Normalised Difference Vegetation Index (NDVI): 0.204
Durum wheat; RapidSCAN CS-45, BBCH 87, non-irrigated
  Normalised Difference Vegetation Index (NDVI): 0.083
Durum wheat; non-irrigated
  Protein content: 12.68%
  Grain Yield: 57.73 dT/Ha
  TGW: 51.16 g
  No. of grains per ear: 37.88
Spring wheat; [1]
  Hectolitre weight: 85.68 kg/Hl
  Grain Yield: 48.00 dT/Ha
  TGW: 41.56 g
  No. of grains per ear: 50.80
Spring wheat; [2]
  Hectolitre weight: 84.96 kg/Hl
  Grain Yield: 42.30 dT/Ha
  TGW: 41.46 g
  No. of grains per ear: 46.70
Glutathione reductase
  production of the enzyme glutathione reductase compared to the untreated control: increase in the production of the enzyme glutathione reductase
